Assay results as given in US20230295118A1 (EnhancedBio Inc., priority 2022, published 2023).

Assays:
Assay type in all cases: cell-based
CDK4 = biological target: T1, CDK4 (Homo sapiens, UniProt P11802); experiment: CDK4 degradation (DC50, Dmax)
T1 construct: endogenous in cells

[1] = system: mantle cell lymphoma cell (Mino or JeKo-1); experiment: Antiproliferative effect, MTS cell viability assay; settings: 72 h, mantle cell lymphoma cell (Mino or JeKo-1), MTS assay, read-out: IC50 (anti-proliferation)
Outline: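 Mino cells treated with compounds at 0, 0.0001, 0.001, 0.01, 0.1, 1 μM for 72 h; palbociclib and abemaciclib as positive controls. Viability by MTS, formazan absorbance read at 490 nm.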

CDK6 = biological target: T2, CDK6 (Homo sapiens, UniProt Q00534); experiment: CDK6 degradation (DC50, Dmax)
T2 construct: endogenous in cells
T2 sequence (Q00534 whole entry): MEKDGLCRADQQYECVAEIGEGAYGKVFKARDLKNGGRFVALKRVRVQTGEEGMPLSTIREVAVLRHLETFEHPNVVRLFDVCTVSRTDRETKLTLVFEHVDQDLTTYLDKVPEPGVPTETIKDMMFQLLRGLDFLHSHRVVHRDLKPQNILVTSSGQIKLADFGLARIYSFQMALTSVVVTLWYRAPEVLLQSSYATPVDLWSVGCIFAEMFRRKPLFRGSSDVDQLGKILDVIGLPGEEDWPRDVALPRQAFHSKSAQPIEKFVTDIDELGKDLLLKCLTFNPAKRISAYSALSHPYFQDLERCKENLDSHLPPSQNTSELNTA

T1 sequence (P11802 whole entry): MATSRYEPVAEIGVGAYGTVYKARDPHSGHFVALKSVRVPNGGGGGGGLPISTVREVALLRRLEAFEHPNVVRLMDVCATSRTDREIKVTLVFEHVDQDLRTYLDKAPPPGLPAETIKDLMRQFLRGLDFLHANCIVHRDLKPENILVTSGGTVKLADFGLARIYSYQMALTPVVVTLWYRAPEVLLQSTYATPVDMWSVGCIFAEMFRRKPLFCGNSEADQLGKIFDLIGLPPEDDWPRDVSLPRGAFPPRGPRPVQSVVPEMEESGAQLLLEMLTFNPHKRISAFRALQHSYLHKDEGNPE

Row | Compound | DC50 (CDK4) | Dmax (CDK4) | IC50 [1] | DC50 (CDK6) | Dmax (CDK6)
1 | CC(=O)c1c(C)c2cnc(Nc3ccc(N4CCN(CCNc5ccc6c(c5)CN(C5CCC(=O)NC5=O)C6=O)CC4)cn3)nc2n(C2CCCC2)c1=O (centres unmarked) [Compound 48, 3-(5-((2-(4-(6-((6-acetyl-8-cyclopentyl-5-methyl-7-oxo-7,8-dihydropyrido[2,3-d]pyrimidin-2-yl)amino)pyridin-3-yl)piperazin-1-yl)ethyl)amino)-1-oxoisoindolin-2-yl)piperidine-2,6-dione] | < 50 nM | > 80% | < 50 nM | < 50 nM | > 80%
2 | Cc1nc2c(F)cc(-c3nc(Nc4ccc(CN5CCN(C(=O)C6CCN(c7ccc(C(=O)NC8CCC(=O)NC8=O)cc7)CC6)CC5)cn4)ncc3F)cc2n1C(C)C (centres unmarked) [Compound 155, N-(2,6-dioxopiperidin-3-yl)-4-(4-(4-((6-((5-fluoro-4-(4-fluoro-1-isopropyl-2-methyl-1H-benzo[d]imidazol-6-yl)pyrimidin-2-yl)amino)pyridin-3-yl)methyl)piperazine-1-carbonyl)piperidin-1-yl)benzamide] | 50 to 200 nM | > 50% | 50 to 200 nM | > 200 nM | > 50%
3 | Cc1nc2c(F)cc(-c3nc(Nc4ccc(CN5CCN(CC6CCCN(c7ccc(N8CCC(=O)NC8=O)cc7)C6)CC5)cn4)ncc3F)cc2n1C(C)C (centres unmarked) [Compound 110, 1-(4-(3-((4-((6-((5-fluoro-4-(4-fluoro-1-isopropyl-2-methyl-1H-benzo[d]imidazol-6-yl)pyrimidin-2-yl)amino)pyridin-3-yl)methyl)piperazin-1-yl)methyl)piperidin-1-yl)phenyl) dihydropyrimidine-2,4(1H,3H)-dione] | < 50 nM | > 80% | < 50 nM | < 50 nM | > 80%
4 | Cc1nc2c(F)cc(-c3nc(Nc4ccc(CN5CCN(CC6CN(c7ccc(N8CCC(=O)NC8=O)cc7)C6)CC5)cn4)ncc3F)cc2n1C(C)C [Compound 106, 1-(4-(3-((4-((6-((5-fluoro-4-(4-fluoro-1-isopropyl-2-methyl-1H-benzo[d]imidazol-6-yl)pyrimidin-2-yl)amino)pyridin-3-yl)methyl)piperazin-1-yl)methyl)azetidin-1-yl)phenyl) dihydropyrimidine-2,4(1H,3H)-dione] | < 50 nM | > 80% | < 50 nM | < 50 nM | > 80%
5 | CC(=O)c1c(C)c2cnc(Nc3ccc(N4CCN(C(=O)N5CCC(CCN6CCN(c7ccc8c(c7)CN(C7CCC(=O)NC7=O)C8=O)CC6)CC5)CC4)cn3)nc2n(C2CCCC2)c1=O (centres unmarked) [Compound 20, 3-(5-(4-(2-(1-(4-(6-((6-acetyl-8-cyclopentyl-5-methyl-7-oxo-7,8-dihydropyrido[2,3-d]pyrimidin-2-yl)amino)pyridin-3-yl)piperazine-1-carbonyl)piperidin-4-yl)ethyl)piperazin-1-yl)-1-oxoisoindolin-2-yl)piperidine-2,6-dione] | 50 to 200 nM | > 60% | 50 to 200 nM | 50 to 200 nM | > 60%
6 | CC(=O)c1c(C)c2cnc(Nc3ccc(N4CCN(C(=O)N5CCC(CN6CCN(c7ccc8c(c7)CN(C7CCC(=O)NC7=O)C8=O)CC6)CC5)CC4)cn3)nc2n(C2CCCC2)c1=O (centres unmarked) [Compound 12, 3-(5-(4-((1-(4-(6-((6-acetyl-8-cyclopentyl-5-methyl-7-oxo-7,8-dihydropyrido[2,3-d]pyrimidin-2-yl)amino)pyridin-3-yl)piperazine-1-carbonyl)piperidin-4-yl)methyl)piperazin-1-yl)-1-oxoisoindolin-2-yl)piperidine-2,6-dione] | > 200 nM | > 60% | 50 to 200 nM | > 200 nM | > 60%
7 | CC(=O)c1c(C)c2cnc(Nc3ccc(N4CCN(C(=O)C5CN(c6ccc(C(=O)NC7CCC(=O)NC7=O)cc6)C5)CC4)cn3)nc2n(C2CCCC2)c1=O (centres unmarked) [Compound 123, 4-(3-(4-(6-((6-acetyl-8-cyclopentyl-5-methyl-7-oxo-7,8-dihydropyrido[2,3-d]pyrimidin-2-yl)amino)pyridin-3-yl)piperazine-1-carbonyl)azetidin-1-yl)-N-(2,6-dioxopiperidin-3-yl)benzamide] | < 50 nM | > 60% | < 50 nM | < 50 nM | > 60%
8 | Cc1nc2c(F)cc(-c3nc(Nc4ccc(CN5CCN(C(=O)C6CN(c7ccc(C(=O)NC8CCC(=O)NC8=O)cc7)C6)CC5)cn4)ncc3F)cc2n1C(C)C (centres unmarked) [Compound 137, N-(2,6-dioxopiperidin-3-yl)-4-(3-(4-((6-((5-fluoro-4-(4-fluoro-1-isopropyl-2-methyl-1H-benzo[d]imidazol-6-yl)pyrimidin-2-yl)amino)pyridin-3-yl)methyl)piperazine-1-carbonyl)azetidin-1-yl)benzamide] | 50 to 200 nM | > 60% | 50 to 200 nM | 50 to 200 nM | > 60%
9 | CC(=O)c1c(C)c2cnc(Nc3ccc(N4CCN(CC5CCN(C(=O)N6CCN(c7ccc8c(c7)CN(C7CCC(=O)NC7=O)C8=O)CC6)CC5)CC4)cn3)nc2n(C2CCCC2)c1=O (centres unmarked) [Compound 32, 3-(5-(4-(4-((4-(6-((6-acetyl-8-cyclopentyl-5-methyl-7-oxo-7,8-dihydropyrido[2,3-d]pyrimidin-2-yl)amino)pyridin-3-yl)piperazin-1 - yl)methyl)piperidine-1-carbonyl)piperazin-1-yl)-1-oxoisoindolin-2-yl)piperidine-2,6-dione] | 50 to 200 nM | > 60% | 50 to 200 nM | 50 to 200 nM | > 60%
10 | CC(=O)c1c(C)c2cnc(Nc3ccc(N4CCN(CCN5CCN(c6ccc7c(c6)C(=O)N(C6CCC(=O)NC6=O)C7=O)CC5)CC4)cn3)nc2n(C2CCCC2)c1=O (centres unmarked) [Compound 67, 5-(4-(2-(4-(6-((6-acetyl-8-cyclopentyl-5-methyl-7-oxo-7,8-dihydropyrido[2,3-d]pyrimidin-2-yl)amino)pyridin-3-yl)piperazin-1-yl)ethyl)piperazin-1-yl)-2-(2,6-dioxopiperidin-3-yl) isoindoline-1,3-dione] | < 50 nM | > 80% | < 50 nM | 50 to 200 nM | > 80%
11 | CC(=O)c1c(C)c2cnc(Nc3ccc(N4CCN(C(=O)N5CCC(N6CCC(c7ccc8c(c7)C(=O)N(C7CCC(=O)NC7=O)C8=O)CC6)CC5)CC4)cn3)nc2n(C2CCCC2)c1=O (centres unmarked) [Compound 7, 5-(1′-(4-(6-((6-acetyl-8-cyclopentyl-5-methyl-7-oxo-7,8-dihydropyrido[2,3-d]pyrimidin-2-yl)amino)pyridin-3-yl)piperazine-1-carbonyl)-[1,4′-bipiperidin]-4-yl)-2-(2,6-dioxopiperidin-3-yl)isoindoline-1,3-dione] | 50 to 200 nM | > 60% | 50 to 200 nM | 50 to 200 nM | > 60%
12 | Cc1nc2c(F)cc(-c3nc(Nc4ccc(CC5CCN(C(=O)C6CCN(c7ccc8c(c7)C(=O)N(C7CCC(=O)NC7=O)C8=O)CC6)CC5)cn4)ncc3F)cc2n1C(C)C (centres unmarked) [Compound 161, 2-(2,6-dioxopiperidin-3-yl)-5-(4-(4-((6-((5-fluoro-4-(4-fluoro-1-isopropyl-2-methyl-1H-benzo[d]imidazol-6-yl)pyrimidin-2-yl)amino)pyridin-3-yl)methyl)piperidine-1-carbonyl)piperidin-1-yl)isoindoline-1,3-dione] | 50 to 200 nM | > 60% | 50 to 200 nM | > 200 nM | > 60%
13 | Cc1nc2c(F)cc(-c3nc(Nc4ccc(CN5CCN(CCNc6ccc7c(c6)C(=O)N(C6CCC(=O)NC6=O)C7)CC5)cn4)ncc3F)cc2n1C(C)C (centres unmarked) [Compound 91, 3-(6-((2-(4-((6-((5-fluoro-4-(4-fluoro-1-isopropyl-2-methyl-1H-benzo[d]imidazol-6-yl)pyrimidin-2-yl)amino)pyridin-3-yl)methyl)piperazin-1-yl)ethyl)amino)-1-oxoisoindolin-2-yl)piperidine-2,6-dione] | < 50 nM | > 80% | < 50 nM | < 50 nM | > 80%
14 | CC(=O)c1c(C)c2cnc(Nc3ccc(N4CCN(C(=O)N5CCC(N6CCC(c7ccc8c(c7)CN(C7CCC(=O)NC7=O)C8=O)CC6)CC5)CC4)cn3)nc2n(C2CCCC2)c1=O (centres unmarked) [Compound 8, 3-(5-(1′-(4-(6-((6-acetyl-8-cyclopentyl-5-methyl-7-oxo-7,8-dihydropyrido[2,3-d]pyrimidin-2-yl)amino)pyridin-3-yl)piperazine-1-carbonyl)-[1,4′-bipiperidin]-4-yl)-1-oxoisoindolin-2-yl)piperidine-2,6-dione] | > 200 nM | > 60% | > 200 nM | > 200 nM | > 50%
15 | Cc1nc2c(F)cc(-c3nc(Nc4ccc(CC5CCN(CC6CCN(c7ccc8c(c7)CN(C7CCC(=O)NC7=O)C8=O)CC6)CC5)cn4)ncc3F)cc2n1C(C)C (centres unmarked) [Compound 158, 3-(5-(4-((4-((6-((5-fluoro-4-(4-fluoro-1-isopropyl-2-methyl-1H-benzo[d]imidazol-6-yl)pyrimidin-2-yi)amino)pyridin-3-yl)methyl)piperidin-1-yl)methyl)piperidin-1-yl)-1-oxoisoindolin-2-yl)piperidine-2,6-dione] | 50 to 200 nM | > 80% | < 50 nM | 50 to 200 nM | > 80%
16 | CC(=O)c1c(C)c2cnc(Nc3ccc(N4CCN(C(=O)N5CCC(CCC6CCN(c7ccc8c(c7)C(=O)N(C7CCC(=O)NC7=O)C8=O)CC6)CC5)CC4)cn3)nc2n(C2CCCC2)c1=O (centres unmarked) [Compound 25, 5-(4-(2-(1-(4-(6-((6-acetyl-8-cyclopentyl-5-methyl-7-oxo-7,8-dihydropyrido[2,3-d]pyrimidin-2-yl)amino)pyridin-3-yl)piperazine-1-carbonyl)piperidin-4-yl)ethyl)piperidin-1-yl)-2-(2,6-dioxopiperidin-3-yl)isoindoline-1,3-dione] | > 200 nM | > 60% | 50 to 200 nM | 50 to 200 nM | > 60%
